These results are taken from PubChem BioAssay (NCI).

Some test systems named below: SW-620 colon; SK-OV-3 ovarian; BT-549 breast; UACC-62 melanoma; T-47D breast; NCI-H460 lung; A549 NSCLC; M14 melanoma; MCF7 breast; HCT-15 colon; SNB-75 CNS; TK-10 renal; SNB-19 CNS; DU-145 prostate; HCC-2998 colon; OVCAR-8 ovarian; SR leukemia.
What all share (test): NCI anticancer screen, dose series, 48 h

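Protocol summary: plate cells (96-well), add compound at 5 concentrations, incubate 48 h, interpolate endpoints linearly. TGI marks complete inhibition of growth.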 Bounds are passed on as bounds.

As for `CC1=NN(c2nc(N)nc(CSc3cc(Cl)c(C)cc3S(N)(=O)=O)n2)C(C)(C)C1`, the TGI in the experiment on SW-620 colon, in the experiment on SK-OV-3 ovarian, with BT-549 breast, with UACC-62 melanoma, with T-47D breast and with NCI-H460 lung was more than 10 µM in each case. Besides, the TGI in the experiment with A549 NSCLC, with M14 melanoma, in the experiment with MCF7 breast, in the experiment on HCT-15 colon, with SNB-75 CNS and in the experiment on TK-10 renal was more than 10 µM in each case. In addition, the TGI in the experiment on SNB-19 CNS, in the experiment on DU-145 prostate, in the experiment with HCC-2998 colon and in the experiment with OVCAR-8 ovarian was more than 10 µM in each case.
For the molecule `CSc1nc(Nc2ccccc2Cl)c2c(N)nn(C)c2n1`, the TGI was more than 100 µM with SW-620 colon; more than 100 µM in the experiment on SK-OV-3 ovarian; more than 100 µM in the experiment on BT-549 breast; more than 100 µM in the experiment on UACC-62 melanoma; 63.5 µM with T-47D breast; more than 100 µM with NCI-H460 lung. The TGI in the experiment with A549 NSCLC, with M14 melanoma, with HCT-15 colon, with TK-10 renal, in the experiment with SNB-19 CNS and in the experiment with DU-145 prostate was more than 100 µM in each case. In addition, the TGI with HCC-2998 colon and with OVCAR-8 ovarian was more than 100 µM in each case.
Turning to `Cc1cc(C)c2c(n1)S(=O)(=O)N(CCCN1CCN(c3cccc(Cl)c3)CC1)/C(=C(\O)c1ccccc1)C2=O`, the TGI is more than 100 µM with SW-620 colon; more than 100 µM in the experiment on SK-OV-3 ovarian; more than 100 µM with BT-549 breast; 68.9 µM with SR leukemia; more than 100 µM in the experiment with UACC-62 melanoma; more than 100 µM in the experiment with T-47D breast. The TGI in the experiment on NCI-H460 lung was 52.5 µM; with A549 NSCLC, more than 100 µM; with M14 melanoma it was more than 100 µM; in the experiment on MCF7 breast, more than 100 µM; with HCT-15 colon, more than 100 µM; in the experiment on TK-10 renal, 78.5 µM. The TGI in the experiment on SNB-19 CNS, in the experiment with DU-145 prostate and in the experiment with OVCAR-8 ovarian was more than 100 µM each time.
For the molecule `CN1CC(c2ccccc2)C(O)(C2(c3ccccc3)CN(C)CC(c3ccccc3)C2=O)C(c2ccccc2)C1` (stereo not given), the TGI in the experiment on SW-620 colon, with BT-549 breast, in the experiment on SR leukemia, in the experiment with UACC-62 melanoma, in the experiment on T-47D breast and in the experiment with NCI-H460 lung was more than 100 µM throughout. For the same molecule, the TGI in the experiment with A549 NSCLC, with M14 melanoma, with MCF7 breast, in the experiment with HCT-15 colon, with TK-10 renal and with SNB-19 CNS was more than 100 µM in each case. For the same molecule, the TGI in the experiment with DU-145 prostate and in the experiment with OVCAR-8 ovarian was more than 100 µM each time.
For `COC(=O)C1CCC(=O)N1CN(C(C)=O)c1cc(OC)ccc1OC` (stereo not given), the TGI with SW-620 colon, with SK-OV-3 ovarian, in the experiment with SR leukemia, in the experiment with UACC-62 melanoma, in the experiment with T-47D breast and in the experiment with NCI-H460 lung was more than 100 µM throughout. Moreover, the TGI in the experiment on A549 NSCLC, in the experiment on M14 melanoma, in the experiment on MCF7 breast, in the experiment on HCT-15 colon, with SNB-75 CNS and in the experiment on TK-10 renal was more than 100 µM in each case. Besides, the TGI with SNB-19 CNS, in the experiment with DU-145 prostate and in the experiment on OVCAR-8 ovarian was more than 100 µM each time.
In the case of `C=C1[C@H]2O[C@H]2[C@@H](OC(C)=O)[C@@]2(C)[C@@H](OC(C)=O)C[C@@H](OC(=O)CCC)[C@@](C)(O)[C@@H]2[C@@H](OC(C)=O)[C@]2(O)[C@@H](C)C(=O)O[C@H]2[C@H]1Cl`, the TGI with SW-620 colon, in the experiment on BT-549 breast, in the experiment on UACC-62 melanoma, with T-47D breast, in the experiment with NCI-H460 lung and in the experiment with A549 NSCLC was more than 100 µM each time. In addition, the TGI in the experiment on M14 melanoma, with MCF7 breast, with HCT-15 colon, in the experiment with SNB-75 CNS, in the experiment with TK-10 renal and in the experiment with SNB-19 CNS was more than 100 µM in each case. Moreover, the TGI with DU-145 prostate, with HCC-2998 colon and with OVCAR-8 ovarian was more than 100 µM in each case.
As for `C[C@@H](CC(=O)O)OC1OC(COC(=O)C(C)(C)C)C(OC(=O)C(C)(C)C)C(OC(=O)C(C)(C)C)C1OC(=O)C(C)(C)C` (stereo not given in full), the TGI in the experiment on SW-620 colon is more than 100 µM; with SK-OV-3 ovarian, more than 100 µM; in the experiment on BT-549 breast it was more than 100 µM; in the experiment with UACC-62 melanoma it was more than 100 µM; in the experiment with T-47D breast it was more than 100 µM; in the experiment on NCI-H460 lung, 75.7 µM. Further, the TGI is more than 100 µM in the experiment with A549 NSCLC; more than 100 µM in the experiment on M14 melanoma; more than 100 µM with MCF7 breast; 84.9 µM with HCT-15 colon; more than 100 µM with SNB-75 CNS; more than 100 µM with TK-10 renal. Further, the TGI in the experiment on SNB-19 CNS was 98.2 µM; with DU-145 prostate, more than 100 µM; in the experiment on HCC-2998 colon, more than 100 µM; in the experiment on OVCAR-8 ovarian, more than 100 µM.
In the case of `O=C1CNC(=O)/C(=C/c2c[nH]c3ccccc23)N1`, the TGI in the experiment on SW-620 colon, in the experiment with SK-OV-3 ovarian, with BT-549 breast, in the experiment on UACC-62 melanoma, with T-47D breast and in the experiment with NCI-H460 lung was more than 100 µM throughout. Moreover, the TGI in the experiment on A549 NSCLC, with M14 melanoma, in the experiment with MCF7 breast, in the experiment on HCT-15 colon, with TK-10 renal and with SNB-19 CNS was more than 100 µM each time. In addition, the TGI with DU-145 prostate, with HCC-2998 colon and with OVCAR-8 ovarian was more than 100 µM throughout.
`CC[C@H](C)C1=C(OC(C)=O)[N@+]2([O-])Oc3ccc(-c4c(O)c(O)c(-c5ccc(OC(C)=O)cc5)c(OC(C)=O)c4OC(C)=O)cc3O[C@]2([C@@H](C)CC)C(=O)N1O`: the TGI in the experiment with SW-620 colon is 34.5 µM; in the experiment with SK-OV-3 ovarian, more than 50 µM; in the experiment on BT-549 breast it was more than 50 µM; in the experiment with SR leukemia it was 39.7 µM; with UACC-62 melanoma, 46.9 µM; with T-47D breast, 37.7 µM. Moreover, the TGI with NCI-H460 lung, in the experiment on A549 NSCLC, in the experiment on M14 melanoma, with MCF7 breast, in the experiment on HCT-15 colon and with TK-10 renal was more than 50 µM in each case. The TGI in the experiment with SNB-19 CNS, in the experiment with DU-145 prostate and with OVCAR-8 ovarian was more than 50 µM throughout.
